Several values for one entry are separate records, joined by “and”; a condition that tells them apart may be missing. Identical values can stand only once.
Test system: Swiss mice, Sarcoma 180 sc, mean tumor weight T/C
Assay: NCI In Vivo Anticancer Drug Screen. Data for tumor model Sarcoma 180 (subcutaneous) in Swiss mice
Conditions: endpoint: mean tumor weight, higher = larger tumour
Outline: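 Readout is the ratio of treated-group measurement to vehicle-control measurement (T/C), based on survival or tumor size in mice carrying transplanted tumors.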

[1] = dose: 50.0 mg/kg/injection, schedule: Q01DX007 (ip), vehicle: other

In the case of `O=C(O)c1cc2ccccc2c(Br)c1O.OC1CCC(Br)C2CCC[N-]C12.[Cu+]`, the T/C (dose: 0.5 mg/kg/injection, schedule: Q01DX007 (ip), vehicle: carboxymethylcellulose (CMC)) is reported as 74 % of control, the T/C (dose: 1.0 mg/kg/injection, schedule: Q01DX007 (ip), vehicle: carboxymethylcellulose (CMC)) is reported as 90 % of control and 95 % of control and the T/C (dose: 2.0 mg/kg/injection, schedule: Q01DX007 (ip), vehicle: carboxymethylcellulose (CMC)) is reported as 101 % of control and 109 % of control. For the same molecule, the T/C (dose: 4.0 mg/kg/injection, schedule: Q01DX007 (ip), vehicle: carboxymethylcellulose (CMC)) was 83 % of control.
In the case of `CCN(CC)P(=S)(N1CC1)N1CC1`, the T/C (dose: 25.0 mg/kg/injection, schedule: Q01DX007 (ip), vehicle: other) is reported as 3 % of control, the T/C [1] is reported as 31 % of control and the T/C (dose: 100.0 mg/kg/injection, schedule: Q01DX007 (ip), vehicle: other) is reported as 1 % of control. The T/C (dose: 220.0 mg/kg/injection, schedule: Q01DX007 (ip), vehicle: saline) was 25 % of control.
`C[C@]12CC[C@H]3[C@@H](CC=C4C[C@@H](OC5CCCCO5)CC[C@@]43C)[C@@H]1CC[C@@H]2O` (stereo not given in full) was tested, and the T/C (dose: 25.0 mg/kg/injection, schedule: Q#A X014 (oral), vehicle: steriod suspending solution) was 95 % of control, the T/C (dose: 75.0 mg/kg/injection, schedule: Q#A X014 (oral), vehicle: steriod suspending solution) was 95 % of control and the T/C (dose: 187.5 mg/kg/injection, schedule: Q#A X014 (oral), vehicle: steriod suspending solution) was 80 % of control.
In the case of `O=C(Nc1ccc(C2=NCCCN2)cc1)c1ccc(NC(=O)c2ccc(C3=NCCCN3)cc2)cc1`, the T/C (dose: 8.0 mg/kg/injection, schedule: Q01DX007 (ip), vehicle: carboxymethylcellulose (CMC)) is reported as 78 % of control and the T/C (dose: 16.0 mg/kg/injection, schedule: Q01DX007 (ip), vehicle: carboxymethylcellulose (CMC)) is reported as 73 % of control.
For `O=c1[nH]cc(N(CCCl)CCCl)c(=O)[nH]1`, the T/C (dose: 0.2 mg/kg/injection, schedule: Q01DX007 (ip), vehicle: carboxymethylcellulose (CMC)) was 104 % of control, the T/C (dose: 0.31 mg/kg/injection, schedule: Q#A X014 (ip), vehicle: carboxymethylcellulose (CMC)) was 51 % of control and the T/C (dose: 0.32 mg/kg/injection, schedule: Q#A X014 (ip), vehicle: carboxymethylcellulose (CMC)) was 65 % of control. The T/C (dose: 0.4 mg/kg/injection, schedule: Q01DX007 (ip), vehicle: carboxymethylcellulose (CMC)) was 88 % of control, the T/C (dose: 0.4 mg/kg/injection, schedule: Q#A X014 (ip), vehicle: carboxymethylcellulose (CMC)) was 67 % of control and the T/C (dose: 0.53 mg/kg/injection, schedule: Q#A X014 (ip), vehicle: carboxymethylcellulose (CMC)) was 67 % of control. For the same molecule, the T/C (dose: 0.62 mg/kg/injection, schedule: Q#A X014 (ip), vehicle: carboxymethylcellulose (CMC)) was 32 % of control, the T/C (dose: 0.64 mg/kg/injection, schedule: Q01DX007 (ip), vehicle: carboxymethylcellulose (CMC)) was 85 % of control and the T/C (dose: 0.75 mg/kg/injection, schedule: Q01DX007 (ip), vehicle: saline) was 85 % of control. The T/C (dose: 0.8 mg/kg/injection, schedule: Q01DX007 (ip), vehicle: carboxymethylcellulose (CMC)) was 62 % of control and 76 % of control, the T/C (dose: 0.8 mg/kg/injection, schedule: Q#A X014 (ip), vehicle: carboxymethylcellulose (CMC)) was 41 % of control and the T/C (dose: 1.06 mg/kg/injection, schedule: Q01DX007 (ip), vehicle: carboxymethylcellulose (CMC)) was 51 % of control. For the same molecule, the T/C (dose: 1.5 mg/kg/injection, schedule: Q01DX007 (ip), vehicle: saline) was 60 % of control, the T/C (dose: 1.5 mg/kg/injection, schedule: Q#A X014 (ip), vehicle: alkali diluted with saline) was 21 % of control and the T/C (dose: 1.6 mg/kg/injection, schedule: Q01DX007 (ip), vehicle: carboxymethylcellulose (CMC)) was 21 % of control.
For `COC(=O)c1cccc2c[n+]3c(cc12)-c1[nH]c2cc(OC)ccc2c1CC3`, the T/C (dose: 10.0 mg/kg/injection, schedule: Q01DX007 (ip), vehicle: other) was 70 % of control, the T/C [1] was 73 % of control and the T/C (dose: 200.0 mg/kg/injection, schedule: Q01DX007 (ip), vehicle: other) was 74 % of control.
For `C[C@]12CC[C@@H]3c4ccc(OC(=O)c5ccccc5)cc4CC[C@H]3[C@@H]1CC[C@@H]2O`, the T/C (dose: 125.0 mg/kg/injection, schedule: Q01DX007 (sc), vehicle: steriod suspending solution) was 47 % of control, the T/C (dose: 250.0 mg/kg/injection, schedule: Q01DX007 (sc), vehicle: steriod suspending solution) was 55 % of control and the T/C (dose: 400.0 mg/kg/injection, schedule: Q01DX007 (sc), vehicle: steriod suspending solution) was 58 % of control and 83 % of control. For the same molecule, the T/C (dose: 666.0 mg/kg/injection, schedule: Q01DX007 (sc), vehicle: steriod suspending solution) was 59 % of control and 62 % of control.
